The source of these data is patent US12673947B2 (Cytosinlab Therapeutics Co., Ltd., priority 2020, dated 2026).

The target of one assay is T1, FLT3 (Homo sapiens, UniProt P36888).
T1 construct: purchased Carna 08-145
T1 sequence (P36888 27-993): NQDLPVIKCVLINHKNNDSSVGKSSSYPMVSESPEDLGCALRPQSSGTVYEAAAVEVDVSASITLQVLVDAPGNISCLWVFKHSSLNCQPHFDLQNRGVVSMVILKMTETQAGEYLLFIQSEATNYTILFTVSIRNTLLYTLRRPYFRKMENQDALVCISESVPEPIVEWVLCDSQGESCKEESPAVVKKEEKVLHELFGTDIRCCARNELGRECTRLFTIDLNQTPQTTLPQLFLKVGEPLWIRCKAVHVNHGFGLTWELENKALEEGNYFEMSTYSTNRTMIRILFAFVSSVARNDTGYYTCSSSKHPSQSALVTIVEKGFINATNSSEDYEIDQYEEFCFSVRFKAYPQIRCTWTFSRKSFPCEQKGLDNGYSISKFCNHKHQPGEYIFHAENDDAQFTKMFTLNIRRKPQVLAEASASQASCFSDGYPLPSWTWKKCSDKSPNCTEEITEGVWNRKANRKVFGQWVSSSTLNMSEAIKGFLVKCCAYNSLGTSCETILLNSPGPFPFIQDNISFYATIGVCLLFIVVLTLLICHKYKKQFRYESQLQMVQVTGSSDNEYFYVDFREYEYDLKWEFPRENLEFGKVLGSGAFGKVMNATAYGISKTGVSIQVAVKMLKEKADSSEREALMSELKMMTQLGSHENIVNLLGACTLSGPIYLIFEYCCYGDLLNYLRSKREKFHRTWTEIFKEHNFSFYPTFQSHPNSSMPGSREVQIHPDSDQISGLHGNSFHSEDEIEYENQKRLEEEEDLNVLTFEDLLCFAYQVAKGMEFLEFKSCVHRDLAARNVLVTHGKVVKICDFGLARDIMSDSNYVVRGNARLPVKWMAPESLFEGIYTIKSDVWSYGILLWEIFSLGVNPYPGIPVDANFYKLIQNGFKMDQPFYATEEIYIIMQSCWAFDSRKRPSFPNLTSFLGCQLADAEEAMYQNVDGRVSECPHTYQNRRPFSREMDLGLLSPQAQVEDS
In words: FLT3 kinase in vitro inhibitory activity experiment (Caliper mobility shift, conversion rate). It counts as biochemical. To be noted: IC50 class, read-out: Enzyme activity FLT3. The essentials:
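FLT3 was pre-incubated with compound for 10 min at room temperature, then the reaction was started with ATP plus Kinase substrate 2 and run 30 min at room temperature before stop solution. Substrate conversion was read by Caliper mobility shift.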

For the next assay, the system named is MV4;11 cells. The assay is described as follows: MV4;11 in vitro inhibition of proliferation assay (CellTiter-Glo, 72 hours). In kind it is cell-based. Conditions: Homo sapiens, MV4-11, 72 h, IC50 class, read-out: Inhibitory activity of cell proliferation MV4;11. The essentials: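 MV4;11 cells in IMDM/10% FBS, 2000 per well, were exposed to 9-point 3-fold DMSO dilutions from 10 uM (final DMSO 0.3%) in triplicate for 72 hours at 37° C., 5% CO2. Viability was read by CellTiter-Glo luminescence, and IC50 came from a four-parameter fit of inhibition.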

Consider `CCc1nc2c(N)ncc(-c3cnn(-c4ccc(C(C)(C)O)nc4)c3)c2nc1NC1CCOCC1` [Compound 347], for which the IC50 on FLT3 is ≤ 10 nM; with MV4;11 cells, 10 to 100 nM.
As for `CCc1nc2c(N)ncc(-c3cnn(-c4ncc(C(C)(C)O)cn4)c3)c2nc1NC1CCOCC1` [Compound 348], the IC50 was ≤ 10 nM at FLT3 and 10 to 100 nM in the assay on MV4;11 cells.
The corresponding values for `CCc1nc2c(N)ncc(-c3cnn(-c4cnc(C(C)(C)O)nc4)c3)c2nc1NC1CCOCC1` [Compound 349] are ≤ 10 nM and 10 to 100 nM.
As for `CCc1nc2c(N)ncc(-c3cnn(-c4ccc(CNC)cc4)c3)c2nc1NC1CCOCC1` [Compound 350], the IC50 on FLT3 and with MV4;11 cells was ≤ 10 nM each time.
Consider `CCc1nc2c(N)ncc(-c3cnn(-c4ccc(C(C)(C)C)cc4)c3)c2nc1N[C@@H]1CC[C@H](O)C1` [Compound 351], for which the IC50 at FLT3 is ≤ 10 nM; in the assay on MV4;11 cells, 10 to 100 nM.
For `CCc1nc2c(N)ncc(-c3cnn(-c4nccc(C(C)(C)O)n4)c3)c2nc1N[C@@H]1CC[C@H](O)C1` [Compound 352], the values for the IC50 at FLT3 and with MV4;11 cells were ≤ 10 nM and 10 to 100 nM, respectively.
On to `CCc1nc2c(N)ncc(-c3cnn(-c4ccc(C#N)c(F)c4)c3)c2nc1N[C@@H]1CC[C@H](O)C1` [Compound 353], for which the IC50 at FLT3 was ≤ 10 nM; in the assay on MV4;11 cells it was 10 to 100 nM.
As to `CCc1nc2c(N)ncc(-c3cnn(-c4ccc(C(C)(C)O)nn4)c3)c2nc1N[C@@H]1CC[C@H](O)C1` [Compound 354], the IC50 at FLT3 was ≤ 10 nM; with MV4;11 cells, 10 to 100 nM.
`CCc1nc2c(N)ncc(-c3cnn(-c4ccc(C(C)(C)O)c(F)c4)c3)c2nc1N[C@@H]1CC[C@H](O)C1` [Compound 355]: the IC50 on FLT3 and with MV4;11 cells was ≤ 10 nM throughout.
In the case of `CCc1nc2c(N)ncc(-c3cnn(-c4cnc(C(C)(C)O)nc4)c3)c2nc1N[C@@H]1CC[C@@H](O)C1` [Compound 356], the IC50 on FLT3 is ≤ 10 nM; in the assay on MV4;11 cells it was 10 to 100 nM.
As to `CCc1nc2c(N)ncc(-c3cnn(-c4ccc5c(c4)CCO5)c3)c2nc1N[C@@H]1CC[C@H](O)C1` [Compound 357], the IC50 on FLT3 and with MV4;11 cells was ≤ 10 nM each time.
Turning to `CCc1nc2c(N)ncc(-c3ccc(NCCNC(=O)[C@H](C)N(C)C(=O)/C=C/CN(C)C)c(OC)c3)c2nc1NC1CCOCC1` [Compound 358, (S,E)-N-(1-((2-((4-(5-amino-3-ethyl-2-((tetrahydro-2H-pyran-4-yl)amino)pyridino[3,4b]pyrazine-8-yl)-2-methoxyphenyl)amino)ethyl)amino)-1-oxopropane-2-yl)-4-(dimethylamino)-N-methylbutyl-2-enamide], the figures for the IC50 at FLT3 and with MV4;11 cells were 10 to 100 nM and 100 to 500 nM, respectively.
